Measured values as given in US7226625B2, “Identification of compositions, compositions, and methods of treatment of obesity and overweight conditions” (Phytomyco Research Corporation, priority 2003, dated 2007).

How the values were obtained:
[1] = in vivo; cited from earlier work
[2] = tested on: 3T3-L1 preadipocytes; test: adipocyte differentiation blocking assay (GPDH level in cell lysates); format: cell-based, mouse; conditions: after 10-fold dilution (FIG. 6)
Source text: The adipocyte differentiation blocking assay is an enzyme assay that examines the ability of compounds to block differentiation of preadipocytes to adipocytes by quantifying the level of GPDH in cell lysates (inhibition of adipogenesis). Based on preliminary results using this assay, we selected two plant extracts (designated as PM765, and as PM902, respectively) and collected eluant fractions isolated by HPLC, the extracts being divided into 40 or 120 fractions in collection wells (collected at 30 second or 1 minute HPLC eluant flow time intervals) (FIG. 3). […] MDI treatment is defined as Differentiation media causes the 3T3-L1 preadipocytes (fibroblast cells) to differentiate into adipocytes (fat cells). Differentiation media is composed of: • Per 100 ml of differentiation media • 90 mL DMEM media • 10 mL FCS • 1% pen/strep • 1 ml methylisobutylxanthine (stock 11.5 mg/mL) • 100 ul dexamethasone (stock 0.4 mg/mL) • 1 ml insulin (stock 1 mg/mL)
Inhibition of adipocyte differentiation is assayed by measuring the levels of the enzyme glycerol-3-phosphate dehydrogenase (GPDH). […]
In this assay pre-adipocyte cells require 10 to 15 days to differentiate into adipocytes. […] After cells have undergone the 10–15 days required to differentiate, cells are assessed for GPDH activity.
Results are expressed as a percentage of the untreated control average. […]

[3] = tested on: adipocytes; test: assays of this invention (lipolysis, adipocyte differentiation, de-differentiation); format: cell-based, mouse
Procedure: Assay 1. Lipolysis Assay.
In this assay, pre-adipocyte cells are seeded in 96-well plates and are induced to convert to adipocytes over the course of a 10–15 day treament with lipolytic reagents. After cells have converted to adipocytes, the cells are starved, and then subsequently treated with or exposed to test compounds or mixtures of compounds or extracts of plants or fractionated extracts of plants. The adipocytes are treated with test compounds in the presence of a surrounding cell medium. Over the course of 1 to 3 hours after exposure to the test compounds or mixture of compounds, the amount of glycerol present in the cell medium is measured. Glycerol and fatty acids are hydrolysis products of triglycerides, and glycerol is released from cells after enzymatic hydrolysis or breakdown of lipids.
Assay 2. […]
In this assay pre-adipocyte cells require 10 to 15 days to differentiate into adipocytes. […] After cells have undergone the 10–15 days required to differentiate, cells are assessed for GPDH activity. […]
This assay comprises a colorimetric assay to screen for compounds and mixtures of compounds that induce the differentiation of adipocytes to preadipocytes. The presence of such compounds is determined by measuring the relative levels of the enzyme GPDH. […] GPDH levels present in the cells are measured to determine if the cells still express the adipocyte phenotype. […]

[4] = tested on: 3T3-L1 cells; conditions: GPDH activity, oil red O staining; cited from earlier work
[5] = tested on: leptin; conditions: cited from earlier work

| Compound | decrease of the amount of fat absorbed from the diet [1] | blocking of adipocyte differentiation, as a percent of positive control [2] | activity in the assays of this invention [3] | differentiation of preadipocytes [4] | effect on leptin levels [5] |
| --- | --- | --- | --- | --- | --- |
| CCCCCCCCCCC[C@@H](C[C@@H]1OC(=O)[C@H]1CCCCCC)OC(=O)[C@H](CC(C)C)NC=O [Orlistat] | about 30% |  |  |  |  |
| C=C[C@](C)(O)CC[C@@H]1[C@@]2(C)CCCC(C)(C)[C@@H]2CC[C@@]1(C)O [sclareol, labdane-14-ene-8,13-diol] |  | blocking of adipocyte differentiation | active |  |  |
| CC1(C)CCC[C@]2(C)[C@H]3CC(=O)O[C@]3(C)CC[C@@H]12 [sclareolide, 3aR-[3a-alpha, 5a-beta, 9a-alpha, 9b-alpha]-decahydro-3a,6,6,9a-tetramethylnaphtho[2,1-b]furane-2(1H)-one] |  | blocking of adipocyte differentiation | active |  |  |
| myostatin: adipocyte blocking agent, inhibitor of skeletal muscle growth, member of the TGF-β superfamily |  |  |  | inhibits differentiation of preadipocytes | no effect |
